Results published in patent publication US10188704B2, “Enhanced melanoma cancer prevention by novel melanotropins” (ARIZONA BOARD OF REGENTS ON BEHALF OF THE UNIVERSITY OF …, priority 2015, dated 2019).
Read-outs that look alike come from different tables or passages of the source.

What was measured:
[1] = target: T1, hMC1R (Homo sapiens, UniProt Q01726); assay: Competition binding assay with [125I]-NDP-α-MSH, whole HEK293 cells expressing hMC1R; conditions: for IC50 / MC1R % BE (Percent Binding Efficiency): Table 4; for IC50: 50% specific binding (N = 4), NB = 0% of 125I-NDP-α-MSH displacement observed at 10 μM, read-out: MC1R IC50; for MC1R % BE (Percent Binding Efficiency): maximal % of 125I-NDP-α-MSH displacement observed at 10 μM; for selectivity towards hMC1R (binding, versus hMC3R, hMC4R, hMC5R): statement in words, refers to Table 4
T1 construct: expressed in transfected cells; host or cells: HEK293

[2] = target: T2, hMC3R (Homo sapiens, UniProt P41968); assay: Competition binding assay with [125I]-NDP-α-MSH, whole HEK293 cells expressing hMC3R; parameters: expressed in transfected cells; host or cells: HEK293; conditions: for MC3R % BE (Percent Binding Efficiency): maximal % of 125I-NDP-α-MSH displacement observed at 10 μM
[3] = target: T3, hMC4R (Homo sapiens, UniProt P32245); assay: Competition binding assay with [125I]-NDP-α-MSH, whole HEK293 cells expressing hMC4R; parameters: expressed in transfected cells; host or cells: HEK293; conditions: for MC4R % BE (Percent Binding Efficiency): maximal % of 125I-NDP-α-MSH displacement observed at 10 μM
[4] = target: T4, hMC5R (Homo sapiens, UniProt P33032); assay: Competition binding assay with [125I]-NDP-α-MSH, whole HEK293 cells expressing hMC5R; parameters: expressed in transfected cells; host or cells: HEK293; conditions: for MC5R % BE (Percent Binding Efficiency): maximal % of 125I-NDP-α-MSH displacement observed at 10 μM
[5] = target: T1, hMC1R; assay: cAMP assay (intracellular cAMP accumulation) at hMC1R; type: cell-based; conditions: Table 2; cAMP activity; read-out: hMC1R % max effect
[6] = in vitro; type: in vitro ADME
[7] = target: T2, hMC3R; assay: cAMP assay (intracellular cAMP accumulation) at hMC3R; type: cell-based; parameters: expressed in transfected cells; conditions: Table 2; for EC50: 50% maximal intracellular cAMP accumulation (N = 4), tested 10^-10 to 10^-5 M
[8] = target: T4, hMC5R; assay: cAMP assay (intracellular cAMP accumulation) at hMC5R; type: cell-based; parameters: expressed in transfected cells; conditions: Table 2; for Emax: cAMP activity, read-out: hMC5R % max effect
[9] = target: T3, hMC4R; assay: cAMP assay (intracellular cAMP accumulation) at hMC4R; type: cell-based; parameters: expressed in transfected cells; conditions: Table 2; for Emax: cAMP activity, read-out: hMC4R % max effect
[10] = Table 4, 50% specific binding (N = 4), NB = 0% of 125I-NDP-α-MSH displacement observed at 10 μM, read-out: MC3R IC50
[11] = Table 4, 50% specific binding (N = 4), NB = 0% of 125I-NDP-α-MSH displacement observed at 10 μM, read-out: MC4R IC50
[12] = Table 4, 50% specific binding (N = 4), NB = 0% of 125I-NDP-α-MSH displacement observed at 10 μM, read-out: MC5R IC50
[13] = Table 2, concentration of peptide at 50% specific binding (N = 4), tested 10^-10 to 10^-5 M, read-out: hMC3R IC50
[14] = Table 2, concentration of peptide at 50% specific binding (N = 4), tested 10^-10 to 10^-5 M, read-out: hMC5R IC50
[15] = 50% maximal intracellular cAMP accumulation (N = 4), tested 10^-10 to 10^-5 M

T4 sequence (P33032 whole entry): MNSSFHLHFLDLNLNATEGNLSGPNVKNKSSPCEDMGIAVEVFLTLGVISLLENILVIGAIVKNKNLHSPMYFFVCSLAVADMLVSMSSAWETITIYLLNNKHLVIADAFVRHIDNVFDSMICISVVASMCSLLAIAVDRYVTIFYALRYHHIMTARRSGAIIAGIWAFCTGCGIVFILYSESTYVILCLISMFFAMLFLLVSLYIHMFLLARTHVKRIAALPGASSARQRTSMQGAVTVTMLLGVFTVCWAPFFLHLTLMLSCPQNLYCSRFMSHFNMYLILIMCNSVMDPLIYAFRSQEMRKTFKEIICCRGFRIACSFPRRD
T1 sequence (Q01726 whole entry): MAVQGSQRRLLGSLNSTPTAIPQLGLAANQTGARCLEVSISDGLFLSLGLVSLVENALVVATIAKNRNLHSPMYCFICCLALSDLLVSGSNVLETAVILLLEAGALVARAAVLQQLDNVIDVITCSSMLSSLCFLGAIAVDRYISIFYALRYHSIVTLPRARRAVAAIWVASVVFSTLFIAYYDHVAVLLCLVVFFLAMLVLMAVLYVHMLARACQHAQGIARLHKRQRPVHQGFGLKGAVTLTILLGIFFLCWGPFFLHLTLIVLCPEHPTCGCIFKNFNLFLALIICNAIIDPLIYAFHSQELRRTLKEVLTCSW
T2 sequence (P41968 whole entry): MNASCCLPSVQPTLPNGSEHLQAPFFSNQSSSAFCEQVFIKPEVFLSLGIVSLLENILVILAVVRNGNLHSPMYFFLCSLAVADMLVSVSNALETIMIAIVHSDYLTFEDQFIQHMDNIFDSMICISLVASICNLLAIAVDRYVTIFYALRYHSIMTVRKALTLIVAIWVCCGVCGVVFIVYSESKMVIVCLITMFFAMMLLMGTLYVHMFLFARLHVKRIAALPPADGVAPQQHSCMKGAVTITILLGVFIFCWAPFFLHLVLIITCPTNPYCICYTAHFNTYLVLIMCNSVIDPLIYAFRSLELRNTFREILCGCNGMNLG
T3 sequence (P32245 whole entry): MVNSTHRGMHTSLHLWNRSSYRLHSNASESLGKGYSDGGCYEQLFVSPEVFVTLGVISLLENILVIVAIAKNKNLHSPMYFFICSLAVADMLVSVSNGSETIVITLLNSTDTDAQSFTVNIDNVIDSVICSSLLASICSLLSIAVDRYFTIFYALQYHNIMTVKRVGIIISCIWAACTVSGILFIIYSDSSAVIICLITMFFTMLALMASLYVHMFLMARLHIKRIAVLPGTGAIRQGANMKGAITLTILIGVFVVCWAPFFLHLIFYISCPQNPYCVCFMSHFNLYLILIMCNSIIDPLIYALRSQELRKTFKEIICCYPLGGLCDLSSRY

Row | IC50 [1] [nM] | IC50 [2, 10] [nM] | MC3R % BE (Percent Binding Efficiency) ([2]; Table 4) [%] | IC50 [3, 11] [nM] | MC4R % BE (Percent Binding Efficiency) ([3]; Table 4) [%] | IC50 [4, 12] [nM] | MC5R % BE (Percent Binding Efficiency) ([4]; Table 4) [%] | MC1R % BE (Percent Binding Efficiency) [1] [%] | Compound | also measured
1 | 198 | 1620 | 53 | 1020 | 100 | > 10000 | 60 |  | CC(C)C[C@H](NC(=O)[C@@H](NC(=O)[C@@H](N)Cc1ccc(O)cc1)C(C)C)C(=O)NCC(=O)N[C@@H](Cc1c[nH]cn1)C(=O)N[C@@H](Cc1ccccc1)C(=O)N[C@@H](CCCNC(=N)N)C(=O)N[C@@H](Cc1c[nH]c2ccccc12)C(=O)N[C@@H](CC(=O)O)C(=O)N[C@@H](CCCNC(=N)N)C(=O)N[C@@H](Cc1ccccc1)C(=O)NCC(N)=O [SEQ ID NO. 9] | 
2 |  |  |  |  |  |  |  |  | CCCC[C@H](NC(=O)[C@@H](NC(=O)[C@@H](N)Cc1ccc(O)cc1)C(C)C)C(=O)NCC(=O)N[C@@H](Cc1cnc[nH]1)C(=O)N[C@H](Cc1ccc2ccccc2c1)C(=O)N[C@@H](CCCN=C(N)N)C(=O)N[C@H](Cc1c[nH]c2ccccc12)C(=O)N[C@@H](CC(=O)O)C(=O)N[C@@H](CCCN=C(N)N)C(=O)N[C@@H](Cc1ccccc1)C(=O)NCC(N)=O [SEQ ID NO. 11, H-Tyr-Val-Nle-Gly-His-D-Nal(2′)-Arg-D-Trp-Asp-Arg-Phe-Gly-NH2] | Emax [5]: 70%; half-life [6]: 52 min; EC50 [7]: 300 ± 6 nM; Emax ([7]; cAMP activity, read-out: hMC3R % max effect): 6%; Emax [8]: 6%; IC50 [2, 13]: 5 ± 0.6 nM; IC50 [4, 14]: 3.5 ± 0.5 nM
3 |  |  |  |  |  |  |  |  | CCCC[C@H](NC(=O)[C@@H](NC(=O)[C@H](Cc1ccc(O)cc1)NC(C)=O)C(C)C)C(=O)NCC(=O)N[C@@H](Cc1c[nH]cn1)C(=O)N[C@H](Cc1ccccc1)C(=O)N[C@@H](CCCNC(=N)N)C(=O)N[C@@H](Cc1c[nH]c2ccccc12)C(=O)N[C@@H](CC(=O)O)C(=O)N[C@@H](CCCNC(=N)N)C(=O)N[C@@H](Cc1ccccc1)C(=O)NCC(N)=O [SEQ ID NO. 12, Ac-Tyr-Val-Nle-Gly-His-D-Phe-Arg-Trp-Asp-Arg-Phe-Gly-NH2, reference compound] | Emax [9]: 100%
4 |  |  | 45 |  | 58 |  | 0 | 100 | H-YVLGHFLFDRFG-NH2 [SEQ ID NO. 5] [listing 1 of 2 here] | selectivity towards hMC1R (binding, versus hMC3R, hMC4R, hMC5R) [1]: highly selective for MC1R; selectivity towards hMC1R (binding, versus hMC3R, hMC4R, hMC5R) ([1]; listed as Peptide 5): significant selectivity towards hMC1R
5 | 22 | > 10000 |  | 3210 |  |  |  |  | H-YVLGHFLFDRFG-NH2 [SEQ ID NO. 5] [listing 2 of 2 here] | 
6 |  |  | 26 |  | 47 |  | 57 | 100 | H-YVLGHFLWDRFG-NH2 [SEQ ID NO. 4] [listing 1 of 2 here] | 
7 | 1480 | 1880 |  | > 10000 |  | 7.3 |  |  | H-YVLGHFLWDRFG-NH2 [SEQ ID NO. 4] [listing 2 of 2 here] | 
8 | 11 | 1400 | 47 | 58 | 36 | 5.3 | 34 | 32 | H-YVLGPFLFDRFG-NH2 [SEQ ID NO. 7] | 
9 |  | 40 | 32 | 13 | 29 | 1.7 | 32 |  | H-YVLGPFLWDRFG-NH2 [SEQ ID NO. 6] | 
10 |  | 1250 | 33 |  | 0 |  | 0 | 0 | H-YVLGPFRFDRFG-NH2 [SEQ ID NO. 3] | 
11 |  | 165 | 100 | 76 | 100 | 67 | 100 |  | H-YVLGPFRWDRFG-NH2 [SEQ ID NO. 2] | 
12 |  |  |  |  |  |  |  |  | H-YVMGPFRWDRFG-NH2 [SEQ ID NO. 10] | EC50 [7]: 0.33 ± 0.01 nM; EC50 [9, 15]: 100 ± 11 nM; Emax [9]: 99%; EC50 [8, 15]: 82 ± 10 nM; Emax [8]: 97%; IC50 [2, 13]: 6.7 ± 1 nM; IC50 ([3]; Table 2, concentration of peptide at 50% specific binding (N = 4), tested 10^-10 to 10^-5 M, read-out: hMC4R IC50): 600 ± 70 nM; IC50 [4, 14]: 340 ± 40 nM
